Consider one compound from patent publication US5057493A, “Novel antibiotics R106” (priority 1988, dated 1991).

Starred links: 1 amine or outer side, 2 acyl side, 3 side chain; linkers in the order of their positions; H or OH if unused. Non-standard residues stand in square brackets, D forms with d. Residues, ends and D or L forms follow the SMILES beside them. ξ: configuration not given here. ξNMeVal(3-OH) = CNC(C(=O)O)C(C)(C)O; NMeF = CN[CH](Cc1ccccc1)C(=O)O; X1 = CCC(C)C(O[*:1])C(=O)[*:2]; NMeV = CN[CH](C(=O)O)C(C)C

What all share (type): cell-based
In assay [1] the test system is Candida tropicalis TIMM 0315. As to the kind of experiment: MIC by agar dilution method, casitone agar. The following applies: 27° C. for 4 days. The method, then: (§1) The minimum inhibitory concentration (MIC) of each antibiotic against various fungi was determined by the agar dilution method using casitone agar medium (2.0% glucose, 0.9% bacto-casitone, 1.0% yeast extract, 0.1% KH2 PO4, 0.1% Na2 HPO4, 1.0% sodium citrate, 2.0% agar: concentrations are all by w/v).
(§2) Each minimum growth inhibitory concentration was determined after culturing at 27° C. for 4 days.

Assay [2] has as its system Cryptococcus neoformans TIMM 0354. Briefly: MIC by agar dilution method, casitone agar. The following applies: 27° C. for 4 days. The method, then: as §1, §2
Assay [3] deals with Candida guilliermondii TIMM 0257. Briefly: MIC by agar dilution method, casitone agar. The following applies: 27° C. for 4 days. The method, then: as §1, §2
In assay [4] the test system is Cryptococcus terreus TIMM 0424. Briefly: MIC by agar dilution method, casitone agar. The note with it: 27° C. for 4 days. The method, then:
as §1, §2

Assay [5] concerns Candida albicans TIMM 0144. As to the kind of experiment: MIC by agar dilution method, casitone agar. The following applies: 27° C. for 4 days. As for the experimental part: as §1, §2
Assay [6] has as its system Candida tropicalis TIMM 0312. As to the kind of experiment: MIC by agar dilution method, casitone agar. The following applies: 27° C. for 4 days. As for the experimental part:
as §1, §2

For another assay, the system named is Candida kefyr TIMM 0298. Briefly: MIC by agar dilution method, casitone agar. The following applies: 27° C. for 4 days. The method, then: as §1, §2
Assay [7] deals with Candida glabrata TIMM 1062. Briefly: MIC by agar dilution method, casitone agar. The note with it: 27° C. for 4 days. As for the experimental part:
as §1, §2

The subject of assay [8] is Cryptococcus laurentii TIMM 0352. Briefly: MIC by agar dilution method, casitone agar. The following applies: 27° C. for 4 days. The method, then:
as §1, §2

Assay [9] deals with Rhodotorula rubra TIMM 0923. As to the kind of experiment: MIC by agar dilution method, casitone agar. The following applies: 27° C. for 4 days. As for the experimental part:
as §1, §2

The test system of assay [10] is Candida albicans var. stellatoidia TIMM 1308. Briefly: MIC by agar dilution method, casitone agar. The note with it: 27° C. for 4 days. As for the experimental part: as §1, §2
The test system of assay [11] is Cryptococcus neoformans TIMM 0355. As to the kind of experiment: MIC by agar dilution method, casitone agar. The following applies: 27° C. for 4 days. As for the experimental part: as §1, §2
Assay [12] relates to Candida albicans TIMM 1529. As to the kind of experiment: MIC by agar dilution method, casitone agar. The note with it: 27° C. for 4 days. The method, then:
as §1, §2

The test system of assay [13] is Candida glabrata TIMM 1064. Briefly: MIC by agar dilution method, casitone agar. The following applies: 27° C. for 4 days. As for the experimental part: as §1, §2
The subject of assay [14] is Candida albicans TIMM 1623. Briefly: MIC by agar dilution method, casitone agar. The following applies: 27° C. for 4 days. The method, then:
as §1, §2

The test system of another assay is Candida krusei TIMM 0270. Briefly: MIC by agar dilution method, casitone agar. The following applies: 27° C. for 4 days. As for the experimental part: as §1, §2
Assay [15] concerns Candida parapsilosis TIMM 0287. As to the kind of experiment: MIC by agar dilution method, casitone agar. The note with it: 27° C. for 4 days. As for the experimental part:
as §1, §2

The test system of assay [16] is Cryptococcus neoformans TIMM 0363. Briefly: MIC by agar dilution method, casitone agar. The following applies: 27° C. for 4 days. As for the experimental part:
as §1, §2

Assay [17] relates to Aspergillus commune TIMM 1331. Briefly: MIC by agar dilution method, casitone agar. The following applies: 27° C. for 7 days.
The test system of assay [18] is Histoplasma capsulatum TIMM 0713. The note with it: 27° C. for 7 days.

`CCC(C)C1NC(=O)C2CCCN2C(=O)C(Cc2ccccc2)N(C)C(=O)C(Cc2ccccc2)NC(=O)C(C(C)C)N(C)C(=O)C(C(C)CC)OC(=O)C(C(C)(C)O)N(C)C(=O)C(CC(C)C)NC(=O)C(C(C)C)N(C)C1=O` (centres unmarked) [Compound 1] (cyclo([ξNMeVal(3-OH)][X1][NMeV]F[NMeF]PI[NMeV]L); configuration not given here): the “Minimum Inhibitory Concentration” value in assay [1] is 0.08 µg/mL; in assay [2], 0.63 µg/mL; in [3] it was 0.08 µg/mL; in assay [4] it was 0.31 µg/mL; in assay [5], no more than 0.04 µg/mL; in assay [6] it was 0.08 µg/mL. Also, the “Minimum Inhibitory Concentration” value in the assay on Candida kefyr TIMM 0298 is 0.16 µg/mL; in [7], no more than 0.04 µg/mL; in assay [8], 0.31 µg/mL; in assay [9] it was 0.63 µg/mL; in [10], no more than 0.04 µg/mL; in assay [11], 0.31 µg/mL. The “Minimum Inhibitory Concentration” value in assay [12] is no more than 0.04 µg/mL; in assay [13], 0.08 µg/mL; in [14] it was no more than 0.04 µg/mL; in the assay on Candida krusei TIMM 0270 it was no more than 0.04 µg/mL; in assay [15], 0.16 µg/mL; in [16], 1.25 µg/mL. Further, the “Minimum Inhibitory Concentration” value in assay [17] amounted to 1.25 µg/mL; in [18], 0.16 µg/mL.
